Measured values taken from PMC12736018, “Stereoselective Cytotoxicity of Enantiopure 3,3-Dichloro-γ-lactams: Correlating In Vitro Activity with In Vivo Tolerability” (Molecules, 2025).
In brackets after ≈: the same amount, converted by molar mass.

Columns and labels:
[1] = tested on: 3T3 cells; test: MTT cell viability assay, 3T3; type: cell-based; details: Mus musculus, NIH3T3; 3T3, MTT, 24 h
Description: (§1) The murine Swiss albino fibroblast (3T3), the immortal human keratinocyte (HaCaT), the squamous cell carcinoma (A431), the human epithelial carcinoma (HeLa) and the human breast adenocarcinoma (MCF-7) cell lines were sourced from Celltec UB (Barcelona, Spain). All cells were maintained and grown in DMEM medium (4.5 g/L glucose) supplemented with 10% (v/v) FBS, 2 mM L-glutamine, 100 U/mL penicillin and 100 μg/mL streptomycin at 37 °C, 5% CO2. Cells were routinely cultured in 75 cm^2 culture flasks and were trypsinized using trypsin-EDTA when the cells reached approximately 80%. Cell concentration in the resulting suspension was assessed using the trypan blue assay, which enables direct discrimination between viable (unstained) and non-viable (blue) cells.
(§2) T3 and HaCaT cells (1 × 10^5 cells/mL), along with A431, HeLa, and MCF-7 cells (5 × 10^4 cells/mL), were cultured at defined seeding densities in the 60 central wells of a 96-well plate. Cells were first incubated for 24 h under standard incubator conditions (5% CO2, 37 °C). After this period, the culture medium was removed, and the cells were incubated for an additional 24 h with their corresponding compound solutions (1 mg/mL) previously diluted in a minimum amount of DMF (dimethylformamide) and then in DMEM medium supplemented with 5% FBS (100 µL) at the required concentration range (20 to 250 µg/mL). Cell viability following exposure to the lactam derivatives was evaluated using two complementary assays: NRU and MTT.
(§3) Only living cells can reduce the yellow tetrazolium salt 3-(4,5-dimethyl-2-thiazolyl)-2,5-diphenyltetrazolium bromide (MTT) to insoluble purple formazan crystals. After a 24 h incubation of the cells with their corresponding NPs, the medium was removed and 100 µL of MTT (Sigma-Aldrich, St. Louis, MO, USA) in PBS (5 mg/mL) diluted 1:10 in culture medium without phenol red and without FBS (Lonza, Verviers, Belgium) was added to the cells. After 3 h of incubation, the medium was removed. Thereafter, 100 µL of DMSO (Sigma-Aldrich, St. Louis, MO, USA) was added to each well to dissolve the purple formazan crystals. Agitation and absorbance measurements of the extracted solution were carried out under the same conditions described for the NRU assay. The effect of each treatment was then expressed as the percentage of tetrazolium salt reduction by viable cells relative to untreated controls.
(§4) The half-maximal inhibitory concentration (IC50) values for the different formulations, across cell lines and experimental endpoints, were obtained by fitting the concentration-dependent viability curves. […] These findings reflect the very low cytotoxicity of the compounds toward these cell lines.

[2] = tested on: HaCaT cells; test: MTT cell viability assay, HaCaT; type: cell-based; details: Homo sapiens, 24 h
Description: as §1, §2, §3, §4

[3] = tested on: 3T3 cells; test: NRU cell viability assay, 3T3; type: cell-based; details: Mus musculus, NIH3T3; 3T3, NRU, 24 h
Description: as §1, §2
The neutral red uptake (NRU) assay is based on the accumulation of dye in the lysosomes of viable cells. After the cells were incubated for 24 h with the corresponding systems, the medium was removed, and the solutions were incubated with the NR dye (Sigma-Aldrich, St. Louis, MO, USA) solution (50 µg/mL) dissolved in the medium, without FBS and without phenol red (Lonza, Verviers, Belgium), for 3 h. Cells were then washed with sterile PBS, followed by the addition of 100 µL of a solution containing 50% absolute ethanol and 1% acetic acid in distilled water to extract the dye. To promote the total dissolution of the dye, plates were placed in a microtiter-plate shaker for 5 min at room temperature. The absorbance of the resulting solutions was measured at 550 nm (Bio-Rad 550 microplate reader, Bio-Rad California, Hercules, CA, USA). Finally, the effect of each treatment was calculated as the percentage of dye uptake by viable cells relative to the control cells (cells without any treatment). […]

[4] = tested on: A431 cells; test: NRU cell viability assay, A431; type: cell-based, human; details: Homo sapiens, A-431, 24 h
Description: as §1, §2
(§5) The neutral red uptake (NRU) assay is based on the accumulation of dye in the lysosomes of viable cells. After the cells were incubated for 24 h with the corresponding systems, the medium was removed, and the solutions were incubated with the NR dye (Sigma-Aldrich, St. Louis, MO, USA) solution (50 µg/mL) dissolved in the medium, without FBS and without phenol red (Lonza, Verviers, Belgium), for 3 h. Cells were then washed with sterile PBS, followed by the addition of 100 µL of a solution containing 50% absolute ethanol and 1% acetic acid in distilled water to extract the dye. To promote the total dissolution of the dye, plates were placed in a microtiter-plate shaker for 5 min at room temperature. The absorbance of the resulting solutions was measured at 550 nm (Bio-Rad 550 microplate reader, Bio-Rad California, Hercules, CA, USA). Finally, the effect of each treatment was calculated as the percentage of dye uptake by viable cells relative to the control cells (cells without any treatment). Finally, the effect of each treatment was calculated as the percentage of dye retained by viable cells compared with untreated control cells.
as §4

[5] = tested on: HeLa cells; test: NRU cell viability assay, HeLa; type: cell-based, human; details: Homo sapiens, 24 h
Description: as §1, §2, §5, §4

[6] = tested on: MCF-7 cells; test: NRU cell viability assay, MCF-7; type: cell-based, human; details: Homo sapiens, MCF7; MCF-7, NRU, 24 h
Description: as §1, §2, §5, §4

[7] = Fish Embryo Acute Toxicity (FET) assay: lethality and dysmorphogenesis; type: in vivo; details: zebrafish (Danio rerio), in vivo; zebrafish embryos exposed 2 to 72 hpf, 1.95-125 µg/mL; read-out: LC50 (lethal concentration 50)
Description: (§6) (2 mM CaCl2·2H2O; 0.5 mM MgSO4·7H2O; 0.75 mM NaHCO3; 0.07 mM KCl). The fish were maintained at a temperature of 26 ± 1 °C on a 14 h light and 10 h dark cycle and were daily fed in the morning with Artemia salina, and with commercial flake food in the afternoon (SDS400, Special Diet Services, Dietex, France). The day before eggs were needed, males and females were placed in a breeding tank with plants at a 2:1 male-to-female ratio. The following morning, eggs were collected 30 min after the lights were turned on. […] Fertilized, non-coagulated, and synchronously divided eggs were selected using a stereomicroscope (Motic SMZ168, Motic China group, Ltd., Xiamen, China) and transferred to 6-well plates (10 embryos/well). Embryos were exposed to freshly prepared tested concentrations of the compound in 0.3× Danieau’s solution. Chemical stock solution was prepared in 100% dimethylsulfoxide (DMSO) and subsequently diluted in Danieau’s buffer with a final DMSO concentration of 1% (v/v). Test was carried out using five concentrations with a negative control, solvent control with 1% of DMSO. Embryos were incubated at 27 ± 1 °C with a light–dark cycle of 14:10 h until 72 h post-fertilization (hpf) under semi-static conditions, as exposure solutions were renewed by freshly prepared solutions every 24 h.
(§7) At 24, 48 and 72 hpf embryos were observed under a stereomicroscope to assess lethality. […] At the end of the test, dysmorphogenesis was evaluated in live embryos only. The average lethality and dysmorphogenesis were calculated for 10 embryos per concentration, followed by averaging the results of at least three independent experiments. […] The Teratogenic Index (TI) was deter-mined as the ratio between the LC50 and EC50 (TI = LC50/EC50).

[8] = tested on: zebrafish embryos; test: as above; type: in vivo; details: for EC50: Danio rerio, read-out: EC50 (dysmorphogenesis); for teratogenicity classification: TI > 2; for Teratogenic Index (TI = LC50/EC50): zebrafish embryos
Description: as §6, §7

Row | Compound | IC50 [1] [µg/mL] | IC50 [2] [µg/mL] | IC50 [3] [µg/mL] | IC50 [4] [µg/mL] | IC50 [5] [µg/mL] | IC50 [6] [µg/mL] | LC50 [7] [µg/mL] | EC50 [8] [µg/mL] | teratogenicity classification [8] | Teratogenic Index (TI = LC50/EC50) [8] | embryos exhibiting morphological abnormalities ([8]; at 15.6 µg/mL)
1 | C[C@@H]1CN([C@@H](C)c2ccccc2)C(=O)C1(Cl)Cl [Compound 3, (R)-3,3-dichloro-4-methyl-1-((S)-1-phenylethyl)pyrrolidin-2-one] | 30 (≈ 110 µM) | 122 (≈ 450 µM) | 65 (≈ 239 µM) | 60.2 (≈ 221 µM) | 160 (≈ 588 µM) | 60 (≈ 220 µM) | 63.8 (≈ 234 µM) | 18.3 (≈ 67.1 µM) | potential teratogens | 3.5 | 
2 | C[C@H](c1ccccc1)N1C[C@H](C)C(Cl)(Cl)C1=O [Compound 4] | 94.6 (≈ 348 µM) | 57.3 (≈ 210 µM) | 173 (≈ 634 µM) | 108 (≈ 396 µM) | 77.5 (≈ 285 µM) | > 250 | 33.2 (≈ 122 µM) | 11.2 (≈ 41.3 µM) | potential teratogens | 2.95 | more than 20%
